Reference: PubChem BioAssay AID256 (DTP/NCI, 2004)
Several values for one entry are separate records, joined by “and”; a condition that tells them apart may be missing. Equal entries are not always repeated. Inconclusive results and toxic doses are left out. Rule for the calls: active = survival T/C of 150% or more; inactive = T/C below 125% in these data.

Tested on: CD2F1 mice, L1210 leukemia ip, survival T/C
Test: NCI In Vivo Anticancer Drug Screen. Data for tumor model L1210 Leukemia (intraperitoneal) in CD2F1 (CDF1) mice
Conditions: higher = longer survival
Outline: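 Ratio T/C, where T is the treated-group value and C the vehicle-dosed control value, from mice implanted with a transplantable tumor.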

[1] = endpoint: mean survival time, dose: 100.0 mg/kg/injection, schedule: Q04DX003 (ip), vehicle: saline
[2] = endpoint: mean survival time, dose: 200.0 mg/kg/injection, schedule: Q04DX003 (ip), vehicle: saline
[3] = endpoint: mean survival time, dose: 100.0 mg/kg/injection, schedule: Q04DX003 (ip), vehicle: saline with Tween-80
[4] = endpoint: mean survival time, dose: 200.0 mg/kg/injection, schedule: Q04DX003 (ip), vehicle: saline with Tween-80
[5] = endpoint: mean survival time, dose: 400.0 mg/kg/injection, schedule: Q04DX003 (ip), vehicle: saline with Tween-80
[6] = endpoint: mean survival time, dose: 100.0 mg/kg/injection, schedule: Q01DX009 (ip), vehicle: saline
[7] = endpoint: mean survival time, dose: 200.0 mg/kg/injection, schedule: Q01DX009 (ip), vehicle: saline
[8] = endpoint: mean survival time, dose: 100.0 mg/kg/injection, schedule: Q01DX009 (ip), vehicle: saline with Tween-80
[9] = endpoint: mean survival time, dose: 200.0 mg/kg/injection, schedule: Q01DX009 (ip), vehicle: saline with Tween-80
[10] = endpoint: mean survival time, dose: 400.0 mg/kg/injection, schedule: Q01DX009 (ip), vehicle: saline with Tween-80
[11] = endpoint: mean survival time, dose: 100.0 mg/kg/injection, schedule: Q01DX009 (ip), vehicle: Klucel (hydroxypropylcellulose) (HPC)
[12] = endpoint: mean survival time, dose: 200.0 mg/kg/injection, schedule: Q01DX009 (ip), vehicle: Klucel (hydroxypropylcellulose) (HPC)

Measured: T/C

COCc1nnc(N)c(C(N)=O)n1
inactive: endpoint: mean survival time, dose: 100.0 mg/kg/injection, schedule: Q01DX001 (ip), vehicle: carboxymethylcellulose (CMC) 100 % of control | endpoint: mean survival time, dose: 200.0 mg/kg/injection, schedule: Q01DX001 (ip), vehicle: carboxymethylcellulose (CMC) 100 % of control | endpoint: mean survival time, dose: 400.0 mg/kg/injection, schedule: Q01DX001 (ip), vehicle: carboxymethylcellulose (CMC) 89 % of control

CC(C)C(Br)C(Br)c1ccccc1 (stereo not drawn)
inactive: [1] 96 % of control | [2] 102 % of control

O=S(CS(=O)c1ccccc1)c1ccccc1 (stereo not drawn)
inactive: [3] 100 % of control | [4] 109 % of control | [5] 105 % of control

CCCCCCCCCCCCCC[n+]1ccc(C#N)cc1
inactive: endpoint: mean survival time, dose: 7.5 mg/kg/injection, schedule: Q01DX001 (ip), vehicle: saline 97 % of control | endpoint: mean survival time, dose: 7.5 mg/kg/injection, schedule: Q01DX009 (ip), vehicle: saline 100 % of control | endpoint: mean survival time, dose: 15.0 mg/kg/injection, schedule: Q01DX001 (ip), vehicle: saline 92 % of control | endpoint: mean survival time, dose: 15.0 mg/kg/injection, schedule: Q01DX009 (ip), vehicle: saline 103 % of control | endpoint: mean survival time, dose: 30.0 mg/kg/injection, schedule: Q01DX001 (ip), vehicle: saline 100 % of control | endpoint: mean survival time, dose: 30.0 mg/kg/injection, schedule: Q01DX009 (ip), vehicle: saline 107 % of control

CCOC(=O)c1c(C)[nH]c(C(=O)C(N=O)C(=O)OCC)c1C (stereo not drawn)
inactive: [3] 101 % of control | [4] 97 % of control | [5] 97 % of control

O=C(Nc1ccccc1)OCCCl
inactive: [3] 100 % of control | [4] 97 % of control | [5] 100 % of control

COc1cc(C(C)c2cc3c(cc2OCCO)OCO3)cc(OC)c1OC (stereo not drawn)
inactive: endpoint: median survival time, dose: 25.0 mg/kg/injection, schedule: Q01DX009 (ip), vehicle: saline with Tween-80 96 % of control and 106 % of control | endpoint: median survival time, dose: 50.0 mg/kg/injection, schedule: Q01DX009 (ip), vehicle: saline with Tween-80 106 % of control and 109 % of control | endpoint: median survival time, dose: 100.0 mg/kg/injection, schedule: Q01DX009 (ip), vehicle: saline with Tween-80 106 % of control and 110 % of control

COc1ccc(N/C=C/C2=[N+](C)c3ccccc3C2(C)C)c(OC)c1
inactive: endpoint: mean survival time, dose: 50.0 mg/kg/injection, schedule: Q01DX009 (ip), vehicle: saline 103 % of control | [6] 105 % of control | [1] 89 % of control | [7] 97 % of control | [2] 89 % of control

O=Cc1c[nH]c2ccc(Br)cc12
inactive: [6] 105 % of control | [7] 113 % of control | endpoint: mean survival time, dose: 400.0 mg/kg/injection, schedule: Q01DX009 (ip), vehicle: saline 100 % of control

O=P(CP(c1ccccc1)c1ccccc1)(c1ccccc1)c1ccccc1
inactive: endpoint: mean survival time, dose: 25.0 mg/kg/injection, schedule: Q04DX002 (ip), vehicle: saline with Tween-80 96 % of control | endpoint: mean survival time, dose: 50.0 mg/kg/injection, schedule: Q04DX002 (ip), vehicle: saline with Tween-80 92 % of control | endpoint: mean survival time, dose: 100.0 mg/kg/injection, schedule: Q04DX002 (ip), vehicle: saline with Tween-80 92 % of control

Cc1ccc(S(=O)(=O)/C=C(\I)c2ccccc2)cc1
inactive: [8] 91 % of control | [3] 96 % of control | [9] 94 % of control | [4] 96 % of control | [10] 94 % of control | [5] 93 % of control

CC(=O)N(C)c1ccc(NC(=O)Nc2ccc(C)cc2[N+](=O)[O-])cc1
inactive: [11] 95 % of control | [12] 92 % of control | endpoint: mean survival time, dose: 400.0 mg/kg/injection, schedule: Q01DX009 (ip), vehicle: Klucel (hydroxypropylcellulose) (HPC) 92 % of control

O=C1c2ccccc2C(=O)c2c(NCCCCCO)ccc(NCCCCCO)c21
inactive: endpoint: mean survival time, dose: 16.0 mg/kg/injection, schedule: Q01DX009 (ip), vehicle: Klucel (hydroxypropylcellulose) (HPC) 102 % of control | endpoint: mean survival time, dose: 32.0 mg/kg/injection, schedule: Q01DX009 (ip), vehicle: Klucel (hydroxypropylcellulose) (HPC) 93 % of control | endpoint: mean survival time, dose: 64.0 mg/kg/injection, schedule: Q01DX009 (ip), vehicle: Klucel (hydroxypropylcellulose) (HPC) 96 % of control | endpoint: mean survival time, dose: 128.0 mg/kg/injection, schedule: Q01DX009 (ip), vehicle: Klucel (hydroxypropylcellulose) (HPC) 96 % of control | endpoint: mean survival time, dose: 256.0 mg/kg/injection, schedule: Q01DX009 (ip), vehicle: Klucel (hydroxypropylcellulose) (HPC) 104 % of control

Cc1ccc(S(=O)(=O)CN(O)C(N)=O)cc1
inactive: endpoint: mean survival time, dose: 7.5 mg/kg/injection, schedule: Q01DX009 (ip), vehicle: saline with Tween-80 93 % of control | endpoint: mean survival time, dose: 15.0 mg/kg/injection, schedule: Q01DX009 (ip), vehicle: saline with Tween-80 102 % of control | endpoint: mean survival time, dose: 30.0 mg/kg/injection, schedule: Q01DX009 (ip), vehicle: saline with Tween-80 93 % of control | endpoint: mean survival time, dose: 60.0 mg/kg/injection, schedule: Q01DX009 (ip), vehicle: saline with Tween-80 107 % of control | endpoint: mean survival time, dose: 120.0 mg/kg/injection, schedule: Q01DX009 (ip), vehicle: saline with Tween-80 105 % of control | endpoint: mean survival time, dose: 240.0 mg/kg/injection, schedule: Q01DX009 (ip), vehicle: saline with Tween-80 115 % of control

Clc1ccc(Br)c2c1CCC2
inactive: endpoint: mean survival time, dose: 100.0 mg/kg/injection, schedule: Q04DX003 (ip), vehicle: acetone 101 % of control | endpoint: mean survival time, dose: 200.0 mg/kg/injection, schedule: Q04DX003 (ip), vehicle: acetone 100 % of control

CCS(=O)(=O)c1c(C(N)=O)ncn1C1OC(CO)C(O)C1O (stereo not drawn)
inactive: endpoint: median survival time, dose: 9.13 mg/kg/injection, schedule: Q01DX005 (ip), vehicle: saline 91 % of control | endpoint: median survival time, dose: 18.25 mg/kg/injection, schedule: Q01DX005 (ip), vehicle: saline 102 % of control | endpoint: median survival time, dose: 36.5 mg/kg/injection, schedule: Q01DX005 (ip), vehicle: saline 102 % of control | endpoint: median survival time, dose: 73.0 mg/kg/injection, schedule: Q01DX005 (ip), vehicle: saline 102 % of control | endpoint: median survival time, dose: 146.0 mg/kg/injection, schedule: Q01DX005 (ip), vehicle: saline 100 % of control

NC(=Nc1ccccc1)Nc1ccccc1 (tested in a mixture with another compound)
inactive: [1] 103 % of control | [2] 97 % of control | endpoint: mean survival time, dose: 400.0 mg/kg/injection, schedule: Q04DX003 (ip), vehicle: saline 100 % of control

COc1ccc(/C(C)=N/N=C(\C)c2ccc(OC)cc2)cc1
inactive: endpoint: mean survival time, dose: 25.0 mg/kg/injection, schedule: Q04DX003 (ip), vehicle: saline with Tween-80 105 % of control | endpoint: mean survival time, dose: 50.0 mg/kg/injection, schedule: Q04DX003 (ip), vehicle: saline with Tween-80 102 % of control | [3] 102 % of control

Nc1nc(CCCCc2ccccc2)cc(=O)[nH]1
inactive: [3] 93 % of control | [4] 89 % of control | [5] 91 % of control

O=C(O)NNC(=O)NO
inactive: endpoint: mean survival time, dose: 100.0 mg/kg/injection, schedule: Q01DX009 (ip), vehicle: saline sonified 97 % of control | endpoint: mean survival time, dose: 200.0 mg/kg/injection, schedule: Q01DX009 (ip), vehicle: saline sonified 103 % of control | endpoint: mean survival time, dose: 400.0 mg/kg/injection, schedule: Q01DX009 (ip), vehicle: saline sonified 101 % of control

CC1(OC(=O)c2ccccc2)CC(C)(C)[N+]([O-])=N1 (stereo not drawn)
inactive: endpoint: mean survival time, dose: 25.0 mg/kg/injection, schedule: Q01DX009 (ip), vehicle: Klucel (hydroxypropylcellulose) (HPC) 96 % of control | endpoint: mean survival time, dose: 50.0 mg/kg/injection, schedule: Q01DX009 (ip), vehicle: Klucel (hydroxypropylcellulose) (HPC) 96 % of control | [11] 100 % of control | [12] 91 % of control

O=C(/C=C/c1ccccc1)Cc1ccccc1
inactive: [8] 93 % of control | [3] 92 % of control | [9] 98 % of control | [4] 93 % of control | [10] 88 % of control | [5] 93 % of control
